Values of other authors, collected in patent US20250170254A1, “Subdermal Implant for Sustained Drug Delivery” (OAK CREST INSTITUTE OF SCIENCE, priority 2022, published 2025).

Key:
[1] = 600 mg every 8 weeks, intramuscular long-acting formulation
HIV = settings: four times the protein adjusted IC90 from non-human primate efficacy studies
HIV-1 [2] = settings: long-acting injectable formulation
[3] = in vivo
HIV-1 [4] = test system: HIV-1
HIV-1 [5] = settings: MDTG versus DTG

**Q.** Which “participants with trough concentrations above 1×PA-IC90” value [1] does the source give for `C[C@H]1CO[C@@H]2Cn3cc(C(=O)NCc4ccc(F)cc4F)c(=O)c(O)c3C(=O)N12` [CAB, cabotegravir] here?
**A.** Its value is at least 95%.

**Q.** What about the “participants with trough concentrations above 4×PA-IC90” value [1] of the same compound?
**A.** Its value is at least 80%.

**Q.** What about the “target steady state plasma concentration (four times PA-IC90)” value (HIV) of the same compound?
**A.** Its value is 0.66 µg/mL.

**Q.** What about the “efficacy versus daily oral TDF-FTC in prevention of HIV-1” value (HIV-1 [2]) of the same compound?
**A.** Its value is “superiority”.

**Q.** For `C[C@@H]1CCO[C@H]2Cn3cc(C(=O)NCc4ccc(F)cc4F)c(=O)c(O)c3C(=O)N12` [DTG, dolutegravir], which systemic half-life [3] is on record?
**A.** The systemic half-life was 12 to 15 h.

**Q.** What about the IC50 (HIV-1 [4]; in vitro against HIV-1, PBMCs, read-out: IC50 in peripheral blood mononuclear cells (PBMCs)) of the same compound?
**A.** Its IC50 is 0.51 nM.

**Q.** And the “protein-adjusted IC90 (PA-IC90)” value (HIV-1 [4]; in vitro against HIV-1, protein-adjusted, mass units)?
**A.** Its value is 0.064 µg/mL.

**Q.** And the IC90 (HIV-1 [4]; in vitro against HIV-1, protein-adjusted, read-out: protein-adjusted IC90 (PA-IC90))?
**A.** The IC90 was 150 nM.

**Q.** For `CCCCCCCCCCCCCC(=O)Oc1c2n(cc(C(=O)NCc3ccc(F)cc3F)c1=O)C[C@@H]1OCC[C@@H](C)N1C2=O` [MDTG], which “IC50 against HIV-1 compared with DTG” value (HIV-1 [5]) is on record?
**A.** Its value is “not statistically different”.
